{"source": "patent EP0300806A1", "about": "“Opioid analgesic liposomal delivery-release system” (VESTAR, INC., priority 1987, dated 1989)", "key": {"[1]": {"tested_on": "phenylquinone-induced writhing", "assay": "phenylquinone-induced writhing assay, analgesia after i.m. injection", "type": "in vivo, Mice", "method": "Duration of analgesia was evaluated using the phenylquinone-induced writhing assay essentially as described by Pircio et al. R.W. Pircio, J.A. Gylys, R.L. Cavanagh, J.P. Buyniski and M.E. Bierwagen, 220 Archives Internationales de Pharmacodynamie et de Therapie, 231-57 (1976). Mice were given intraperitoneal injections of 0.025% (w/v) phenyl-p-quinone in 5% ethanol (2.5 mg/kg). […] The writhing phenomenon has been described by Siegmund et al. E. Siegmund, R. Cadmus, G. Lu, 95 Proceedings of the Society for Experimental Biology and Medicine, 729-31 (1957). Five animals per observer was established as a manageable procedure yielding values which were reproducible and consistent from observer to observer. […]\nThe dose required for single injection ED₅₀ and ED₁₀₀ of free butorphanol tartrate was determined by administering various doses of free drug intramuscularly 15 minutes prior to the i.p. injections of phenylquinone. […] The ED₅₀ and ED₁₀₀ values determined in this study were compared for agreement with reported literature values and used along with control values as a reference standard for each study. […]\nExtended analgesia studies were conducted using no fewer than 50 animals per treatment group. […] The times at which analgesic effect was measured were based on the particular treatment and on the results of the previous bioassays for the treatment group."}, "[2]": {"tested_on": "phenylquinone-induced writhing", "assay": "tolerance (tachyphylaxis) studies: shift of ED50 of free butorphanol tartrate in the writhing assay after pretreatment", "type": "in vivo, mice"}}, "note": "Counter-ions that a name gives are not always drawn."}
{"compound": "Oc1ccc2c(c1)C13CCCCC1(O)C(C2)N(CC1CCC1)CC3", "note": "(stereo not drawn) [free butorphanol tartrate, butorphanol tartrate]", "values": [{"measurement": "effect of higher doses on duration of analgesia", "setting": "[1]; 2 ug, 50 ug and 500 ug dose curves, Fig. 1", "result": "do not provide extended efficacy"}, {"measurement": "ED50", "setting": "[1]; Mus musculus, im, 0.25 h, untreated mice, single i.m. injection of free drug 15 minutes prior to i.p. phenylquinone, read-out: ED₅₀", "result": 0.05, "unit": "mg/kg"}, {"measurement": "36 hr. ED₅₀", "setting": "[2]; 5 injections of 100 ug/kg at 3 hr. intervals, second protocol, Fig. 6", "result": "suggestive of recovery from tachyphylaxis"}, {"measurement": "ED50", "setting": "[2]; Mus musculus, im, after four i.m. injections of 50 ul saline at 3 hr. intervals, determined 13 hrs. after start, read-out: ED₅₀ for free butorphanol tartrate after multiple injections of saline", "result": "~0.125", "unit": "mg/kg"}, {"measurement": "increase in ED₅₀ values between no treatment animals and multiple injection animals", "setting": "[2]; after 4 injections of the ED₁₀₀ dose at 3 hr. intervals, first protocol, Fig. 2", "result": "4-5 fold"}, {"measurement": "shift of ED₅₀ relative to its initial value", "setting": "[2]; pretreatment with 4 injections of 100 ug/kg, Fig. 4 bottom panel", "result": "approximately 4 times its initial value"}]}
